Source: patent US20170354600A1, “COMPOSITION AND METHOD FOR STABILIZING GSH” (priority 2016, published 2017)
Where two headings read alike, the source gives them in different places.

Columns and labels:
[1] = GSH retention in solid composition exposed to hydrogen peroxide oxidation (Ellman colorimetric, 405 nm); conditions: 0.1 mmol GSH, 1 ml hydrogen peroxide 1.0% w/v
Procedure: 0.1 mmol of reduced glutathione (96%) was premixed with 5 g of liquid sorbitol (96%, Roquette Corp) using magnetic stirring for 15 minutes at room temperature. Then, as described in Table 2, an amount of each food grade antioxidant were separately added for each test, followed by an additional 10 minutes of stirring. The mixture was then homogeneously dispersed in 100 g of powder sorbitol using mechanical high shear blending for 3 minutes. 1 ml of hydrogen peroxide solution 1.0% w/v was added to each test and a continue mixing for additional 1 minute. A control test with no antioxidant was also performed.
After 6 hours of exposure to oxidation, 5 g of the treated solid mixture was added to 30 ml of 0.1M disodium phosphate/0.001 mM EDTA pH 8.0 buffer solution. This solution was then extracted 3 times with chloroform using a separation funnel. The remaining aqueous phase was added to 100 ml volumetric flask and the volume was completed using 0.1M disodium phosphate/0.001 mM EDTA pH 8.5 buffer solution. The GSH present in this solution was quantify by colorimetric method at 405 nm using Elman's reagent, 5,5′-Dithio-bis-(2-nitrobenzoic acid), using L-glutathione 99%, provided by Sigma Aldrich, as standard. The retaining percentage for each solid composition was calculated and expressed as percentage values in Table 3. […]

[2] = GSH retention in liquid composition exposed to hydrogen peroxide oxidation (Ellman colorimetric, 405 nm); conditions: 0.1 mmol GSH, pH 8.0 buffer, 1 ml hydrogen peroxide 0.5% w/v
Procedure: 0.1 mmol of reduced glutathione (Kohjin Co. Ltd) was premixed with 5 g of liquid sorbitol (96%, Roquette Corp) using magnetic stirring for 10 minutes. Then, as described in Table 5, incremental concentrations of food grade antioxidants where added followed by additional 10 minutes of stirring. The mixture was then added to 100 g of 0.1M disodium phosphate/0.001 mM EDTA pH 8.0 buffer solution, then 1 ml of hydrogen peroxide solution 0.5% w/v was added to each test. A control test with no antioxidant was also performed.
After 1 hour of exposure to oxidation, 5 grams of the treated solution was added to 30 ml of 0.1M disodium phosphate/0.001 mM EDTA pH 8.5 buffer solution. This solution was then extracted 3 times with chloroform using a separation funnel. The remaining aqueous phase was added to a 100 ml volumetric flask and the volume was completed using 0.1M disodium phosphate/0.001 mM EDTA pH 8.0 buffer solution. The GSH present in this solution was quantify by colorimetric method at 405 nm using Elman's reagent, 5,5′-Dithio-bis-(2-nitrobenzoic acid), using L-glutathione 99%, provided by Sigma Aldrich, as standard. The retaining percentage for each solid composition was calculated and expressed as percentage values in Table 6. […]

[3] = GSH, cited from earlier work

Row | SMILES | Retention percentage after 6 hours of oxidation in solid compositions ([1]; 0.001 mmol antioxidant) [%] | Retention percentage after 6 hours of oxidation in solid compositions ([1]; 0.01 mmol antioxidant) [%] | Retention percentage after 6 hours of oxidation in solid compositions ([1]; 10 mmol antioxidant) [%] | Retention percentage after 6 hours of oxidation in solid compositions ([1]; 18.18 mmol antioxidant) [%] | Retention percentage after 1 hour of oxidation in liquid composition ([2]; 0.001 mmol antioxidant) [%] | Retention percentage after 1 hour of oxidation in liquid composition ([2]; 0.01 mmol antioxidant) [%] | Retention percentage after 1 hour of oxidation in liquid composition ([2]; 1 mmol antioxidant) [%] | Retention percentage after 1 hour of oxidation in liquid composition ([2]; 10 mmol antioxidant) [%] | Half life ([3]; pH 6.5, 20° C., 0.1M K2HPO4/KH2PO4 Buffer) [min] | Half life ([3]; pH 7.5, 20° C., 0.1M K2HPO4/KH2PO4 Buffer) [min] | Half life ([3]; pH 8.5, 0° C., 0.1M K2HPO4/KH2PO4 Buffer) [min] | Half life ([3]; pH 8.5, 20° C., 0.1M K2HPO4/KH2PO4 Buffer + 0.1 nM Cu + 2) [min] | Half life ([3]; pH 8.5, 20° C., 0.1M K2HPO4/KH2PO4 Buffer + 1.0 nM EDTA) [min] | Half life ([3]; pH 8.5, 20° C., 0.1M K2HPO4/KH2PO4 Buffer) [min] | Half life ([3]; pH 8.5, 40° C., 0.1M K2HPO4/KH2PO4 Buffer) [min]
1 | O=C1O[C@H]([C@@H](O)CO)C(O)=C1O [Ascorbic acid, L-Ascorbic acid] | 0.00 | 14.29 | 28.96 | 18.18 | 0.00 | 0.00 | 17.92 | 32.08 |  |  |  |  |  |  | 
2 | CCCCCCCCCCCCCCCC(=O)OC[C@H](O)[C@H]1OC(=O)C(O)=C1O [Ascorbyl palmitate] | 18.18 | 25.97 | 46.10 | 36.88 | 0.00 | 13.38 | 18.83 | 36.36 |  |  |  |  |  |  | 
3 | N[C@@H](CCC(=O)N[C@@H](CS)C(=O)NCC(=O)O)C(=O)O [GSH, Reduced glutathione] |  |  |  |  |  |  |  |  | 16 | 9 | 8 | 1.2 | 70 | 1.3 | 0.2
4 | CC(=O)OC/C=C(C)/C=C/C=C(C)/C=C/C1=C(C)CCCC1(C)C [Vitamin A, Vitamin A acetate] | 28.57 | 33.77 | 51.04 | 46.36 | 14.29 | 21.95 | 33.25 | 49.79 |  |  |  |  |  |  | 
5 | CC(=O)Oc1c(C)c(C)c2c(c1C)CC[C@@](C)(CCC[C@H](C)CCC[C@H](C)CCCC(C)C)O2 [Vitamin E, DL alpha tocopheryl acetate] | 24.16 | 31.04 | 45.19 | 39.61 | 10.39 | 16.88 | 30.39 | 41.69 |  |  |  |  |  |  | 
